Reference: patent US5502166A, “NMDH receptor proteins and genes encoding the same” (Mitsubishi Chemical Corporation, priority 1992, dated 1996)
Like-named read-outs stand apart in the source and are kept apart here.

Tests used:
[1] = biological target: T1, ε2/.zeta.1 heteromeric NMDA receptor channel (Mus musculus, UniProt P35438+Q01097); assay: Electrophysiological test in Xenopus oocytes expressing ε2 and .zeta.1 subunits; assay type: cell-based; conditions: for response to kainate / AMPA: 100 μM
T1 construct: expressed in transfected cells; host or cells: Xenopus oocytes injected with in vitro transcribed mRNAs
Experimental: (§1) Then, by using the pBKSA ε2 cut by NotI and the pBKSA ε3 cut by XbaI as molds and using T3 RNA polymerase produced by BRL Co., ε2-specific mRNAs and ε3-specific mRNAs were synthesized in vitro. Transcription was carried out in the same manner as in Example 1.
(§2) Effects of the competitive antagonist were examined with 10-fold concentration of the antagonist concentration used when examining the EC50 values.
Transcription was carried out in the same manner as in Example 1.

[2] = biological target: ε3/.zeta.1 heteromeric NMDA receptor channel (Mus musculus, UniProt P35438+Q01098); assay: Electrophysiological test in Xenopus oocytes expressing ε3 and .zeta.1 subunits; assay type: cell-based; conditions: for response to kainate / AMPA: 100 μM
ε3/.zeta.1 heteromeric NMDA receptor channel, sequence (Q01098 20-1239, other chains not shown): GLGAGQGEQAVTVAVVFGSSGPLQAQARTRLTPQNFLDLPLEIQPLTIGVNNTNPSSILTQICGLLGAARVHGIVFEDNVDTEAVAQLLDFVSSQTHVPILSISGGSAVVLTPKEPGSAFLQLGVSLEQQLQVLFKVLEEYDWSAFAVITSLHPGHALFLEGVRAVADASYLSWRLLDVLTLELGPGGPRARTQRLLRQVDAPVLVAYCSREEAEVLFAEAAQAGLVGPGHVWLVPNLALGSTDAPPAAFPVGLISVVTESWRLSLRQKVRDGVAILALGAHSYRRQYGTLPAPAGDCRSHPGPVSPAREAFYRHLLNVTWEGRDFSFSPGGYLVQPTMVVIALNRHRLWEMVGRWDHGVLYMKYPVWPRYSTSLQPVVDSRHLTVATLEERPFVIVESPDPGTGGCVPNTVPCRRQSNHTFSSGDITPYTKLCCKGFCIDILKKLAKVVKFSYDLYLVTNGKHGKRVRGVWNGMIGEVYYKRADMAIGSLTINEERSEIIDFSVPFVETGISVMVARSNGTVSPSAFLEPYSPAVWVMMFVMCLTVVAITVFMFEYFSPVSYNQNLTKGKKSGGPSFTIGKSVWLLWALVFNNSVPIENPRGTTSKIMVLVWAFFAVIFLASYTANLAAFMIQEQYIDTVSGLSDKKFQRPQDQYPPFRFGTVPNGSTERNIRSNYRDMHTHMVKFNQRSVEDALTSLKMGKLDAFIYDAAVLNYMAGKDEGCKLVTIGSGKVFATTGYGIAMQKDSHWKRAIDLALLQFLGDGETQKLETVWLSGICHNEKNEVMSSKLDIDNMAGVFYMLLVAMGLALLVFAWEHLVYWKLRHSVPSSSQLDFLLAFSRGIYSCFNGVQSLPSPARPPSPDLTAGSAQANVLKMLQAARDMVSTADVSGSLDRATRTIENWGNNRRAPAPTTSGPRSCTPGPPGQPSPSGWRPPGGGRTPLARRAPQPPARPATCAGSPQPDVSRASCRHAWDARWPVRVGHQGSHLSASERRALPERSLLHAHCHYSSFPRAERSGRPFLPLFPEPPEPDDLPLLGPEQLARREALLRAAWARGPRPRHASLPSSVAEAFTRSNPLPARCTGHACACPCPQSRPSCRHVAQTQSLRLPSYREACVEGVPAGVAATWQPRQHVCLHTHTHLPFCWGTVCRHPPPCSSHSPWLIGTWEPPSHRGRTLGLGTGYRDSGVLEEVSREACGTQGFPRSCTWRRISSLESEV
Experimental: as §1, §2

[3] = biological target: ε4/.zeta.1 heteromeric NMDA receptor channel (Mus musculus, UniProt P35438+Q03391); assay: Electrophysiological test in Xenopus oocytes expressing ε4 and .zeta.1 subunits; assay type: cell-based
ε4/.zeta.1 heteromeric NMDA receptor channel, sequence (Q03391 28-1323, other chains not shown): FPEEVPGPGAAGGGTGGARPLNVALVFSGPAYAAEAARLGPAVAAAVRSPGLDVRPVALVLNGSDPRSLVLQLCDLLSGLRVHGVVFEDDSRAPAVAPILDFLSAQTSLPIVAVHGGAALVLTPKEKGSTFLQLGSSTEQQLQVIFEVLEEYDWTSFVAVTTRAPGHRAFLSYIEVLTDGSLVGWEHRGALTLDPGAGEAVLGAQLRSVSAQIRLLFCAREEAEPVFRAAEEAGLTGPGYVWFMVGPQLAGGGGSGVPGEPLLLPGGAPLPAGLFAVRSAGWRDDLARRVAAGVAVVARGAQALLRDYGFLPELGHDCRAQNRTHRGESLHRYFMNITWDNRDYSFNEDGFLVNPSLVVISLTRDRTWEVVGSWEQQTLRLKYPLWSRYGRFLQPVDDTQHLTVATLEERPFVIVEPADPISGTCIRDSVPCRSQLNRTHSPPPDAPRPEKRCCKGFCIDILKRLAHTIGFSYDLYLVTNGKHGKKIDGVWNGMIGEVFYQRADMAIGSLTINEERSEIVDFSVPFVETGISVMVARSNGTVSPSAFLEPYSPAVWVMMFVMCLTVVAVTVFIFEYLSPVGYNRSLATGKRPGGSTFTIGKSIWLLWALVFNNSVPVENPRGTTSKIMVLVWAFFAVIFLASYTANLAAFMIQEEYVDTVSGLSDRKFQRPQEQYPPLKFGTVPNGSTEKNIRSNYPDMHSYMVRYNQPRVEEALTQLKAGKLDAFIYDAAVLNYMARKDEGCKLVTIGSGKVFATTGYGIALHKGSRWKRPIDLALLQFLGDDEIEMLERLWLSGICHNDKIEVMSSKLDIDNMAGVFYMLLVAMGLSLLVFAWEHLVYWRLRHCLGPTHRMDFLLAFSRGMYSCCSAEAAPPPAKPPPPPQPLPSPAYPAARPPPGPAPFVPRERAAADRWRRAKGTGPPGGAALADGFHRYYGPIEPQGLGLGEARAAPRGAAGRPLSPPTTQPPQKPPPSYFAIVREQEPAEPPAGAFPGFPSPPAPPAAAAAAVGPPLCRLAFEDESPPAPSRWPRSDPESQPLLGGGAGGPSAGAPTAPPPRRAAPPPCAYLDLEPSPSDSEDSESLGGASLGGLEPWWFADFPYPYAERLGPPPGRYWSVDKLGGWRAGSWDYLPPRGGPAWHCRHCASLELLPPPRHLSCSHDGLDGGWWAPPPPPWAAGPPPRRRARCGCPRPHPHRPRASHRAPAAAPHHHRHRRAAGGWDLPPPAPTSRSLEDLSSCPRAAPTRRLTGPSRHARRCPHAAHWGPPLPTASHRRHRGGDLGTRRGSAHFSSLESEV
Experimental: FIGS. 1(a) and 1(b) show functional expression of ε4/.zeta.1 heteromeric NMDA receptor channel cDNAs in frog oocytes. Current responses are measured at -70 mV membrane potential in normal Ringer's solution. […] FIG. 1(b) represent effects of 500 μM D-2-amino-5-phosphonovalerate (APV) (Glu/Gly +APV) and 100 μM 7-chlorokynurenate (7 CK) (Glu/Gly +7 CK) on a current response of the ε4/.zeta.1 heteromeric channel to Glu/Gly, respectively.
Current responses are measured at -70 mV membrane potential in a Ba^2+ -Ringer's solution.
Then, by using the pSPGR ε4 plasmid cut by EcoRI as a template and using SP6 RNA polymerase, ε4-specific mRNAs were synthesized in vitro. Transcription was carried out in the same manner as in Example 1.

[4] = test system: ε1/.xi.1, ε2/.xi.1 and ε3/.xi.1 heteromeric NMDA receptor channels; assay: Comparison of ε1/, ε2/ and ε3/.xi.1 heteromeric channels in Xenopus oocytes; assay type: cell-based, mouse; conditions: 10-fold concentration used when examining EC50
From the text: as §2

[5] = test system: ε1/.xi.1, ε2/.xi.1, ε3/.xi.1 and ε4/.xi.1 heteromeric NMDA receptor channels; assay: Comparison of ε1/, ε2/, ε3/ and ε4/.xi.1 heteromeric channels in Xenopus oocytes; assay type: cell-based, mouse
Experimental: (§6) The oocytes used were obtained from mature female Xenopus and separated into one oocyte in a Barth medium by using sharp tweezers and scissors. The concentration of the mRNAs was 0.1 μg/μl and 10 μl thereof was injected into about 100 oocytes in an amount of 50 to 100 nl per one oocyte. The mRNAs were injected under a microscope by using a capillary and a micromanipulator. After the injection, the oocytes were incubated at 19° C. for one day in a Barth medium containing 0.1 mg/ml of gentamicin ("The Control of Gene Expression in Animal Development, Clarendon, Oxford (1974)). Then, the oocytes were allowed to stand in 1 mg/ml of collagenase at room temperature for 1 hour, and then extracellular skins were removed under a microscope by using sharp tweezers. These oocytes were returned to the Barth medium containing 0.1 mg/ml of gentamicin, incubated again at 19° C. for one day and then used for an electrophysiological test.
(§7) The electrophysiological test was carried out by a conventional micropipet voltage clamp method. […] In the present experiment system, flow of these ions were detected, and opening and closing of the ion channel were observed. […]

[6] = test system: ε2/.zeta.1-N598Q NMDA receptor channel; assay: Electrophysiological test in Xenopus oocytes expressing modified ε2/.zeta.1-N598Q channel; assay type: cell-based, mouse
From the text: (§3) In the figures, FIGS. 4(a), 4(b), 4(c) and 4(d) represent an ε2/.zeta.1 NMDA receptor channel, an ε2/.zeta.1-N598Q (a modified glutamate receptor shown in Sequence ID No. 9 of the sequence table) NMDA receptor channel, an ε2-N589Q (a modified glutamate receptor shown in Sequence ID No. 8 of the sequence table)/.zeta.l NMDA receptor channel and an ε2-N589Q/.zeta.1-N598Q NMDA receptor channel, respectively.
(§4) FIGS. 5(a) to 5(d) show current-voltage relationships of wild type and mutant heteromeric channels in the presence of 1 mM Mg^2+ ( ) and in the absence thereof (.smallcircle.). In the figures, FIGS. 5(a) , 5(b) , 5(c) and 5(d) represent an ε2/.zeta.1 NMDA receptor channel, an ε2/.zeta.1-N598Q NMDA receptor channel, an ε2-N589Q/.zeta.1 NMDA receptor channel and an ε2-N589Q/.zeta.1-N598Q NMDA receptor channel, respectively.
(§5) In the figure, .largecircle., , , .quadrature. and represent an ε2/.zeta.1 NMDA receptor channel, an ε2/.zeta.1-N598Q NMDA receptor channel, an ε2-N589Q/.zeta.1 NMDA receptor channel, an ε2-N589Q/.zeta.1-N598Q NMDA receptor channel and an ε2/.zeta.1-ZAZ (a mutant glutamate receptor shown in Sequence ID No. 10 of the sequence table) NMDA receptor channel, respectively. […]

[7] = test system: ε2-N589Q/.zeta.1 NMDA receptor channel; assay: Electrophysiological test in Xenopus oocytes expressing modified ε2-N589Q/.zeta.1 channel; assay type: cell-based, mouse
From the text: as §3, §4, §5

[8] = test system: ε2-N589Q/.zeta.1-N598Q NMDA receptor channel; assay: Electrophysiological test in Xenopus oocytes expressing modified ε2-N589Q/.zeta.1-N598Q channel; assay type: cell-based, mouse
From the text: as §3, §4, §5

[9] = biological target: T2, ε1/.zeta.1 heteromeric NMDA receptor channel (Mus musculus, UniProt P35436+P35438); assay: Electrophysiological test (micropipet voltage clamp) in Xenopus oocytes expressing ε1 and .zeta.1 subunits; assay type: cell-based
T2 construct: expressed in transfected cells; host or cells: Xenopus oocytes injected with in vitro transcribed mRNAs
T2 sequence (P35436 23-1464 S384R, other chains not shown): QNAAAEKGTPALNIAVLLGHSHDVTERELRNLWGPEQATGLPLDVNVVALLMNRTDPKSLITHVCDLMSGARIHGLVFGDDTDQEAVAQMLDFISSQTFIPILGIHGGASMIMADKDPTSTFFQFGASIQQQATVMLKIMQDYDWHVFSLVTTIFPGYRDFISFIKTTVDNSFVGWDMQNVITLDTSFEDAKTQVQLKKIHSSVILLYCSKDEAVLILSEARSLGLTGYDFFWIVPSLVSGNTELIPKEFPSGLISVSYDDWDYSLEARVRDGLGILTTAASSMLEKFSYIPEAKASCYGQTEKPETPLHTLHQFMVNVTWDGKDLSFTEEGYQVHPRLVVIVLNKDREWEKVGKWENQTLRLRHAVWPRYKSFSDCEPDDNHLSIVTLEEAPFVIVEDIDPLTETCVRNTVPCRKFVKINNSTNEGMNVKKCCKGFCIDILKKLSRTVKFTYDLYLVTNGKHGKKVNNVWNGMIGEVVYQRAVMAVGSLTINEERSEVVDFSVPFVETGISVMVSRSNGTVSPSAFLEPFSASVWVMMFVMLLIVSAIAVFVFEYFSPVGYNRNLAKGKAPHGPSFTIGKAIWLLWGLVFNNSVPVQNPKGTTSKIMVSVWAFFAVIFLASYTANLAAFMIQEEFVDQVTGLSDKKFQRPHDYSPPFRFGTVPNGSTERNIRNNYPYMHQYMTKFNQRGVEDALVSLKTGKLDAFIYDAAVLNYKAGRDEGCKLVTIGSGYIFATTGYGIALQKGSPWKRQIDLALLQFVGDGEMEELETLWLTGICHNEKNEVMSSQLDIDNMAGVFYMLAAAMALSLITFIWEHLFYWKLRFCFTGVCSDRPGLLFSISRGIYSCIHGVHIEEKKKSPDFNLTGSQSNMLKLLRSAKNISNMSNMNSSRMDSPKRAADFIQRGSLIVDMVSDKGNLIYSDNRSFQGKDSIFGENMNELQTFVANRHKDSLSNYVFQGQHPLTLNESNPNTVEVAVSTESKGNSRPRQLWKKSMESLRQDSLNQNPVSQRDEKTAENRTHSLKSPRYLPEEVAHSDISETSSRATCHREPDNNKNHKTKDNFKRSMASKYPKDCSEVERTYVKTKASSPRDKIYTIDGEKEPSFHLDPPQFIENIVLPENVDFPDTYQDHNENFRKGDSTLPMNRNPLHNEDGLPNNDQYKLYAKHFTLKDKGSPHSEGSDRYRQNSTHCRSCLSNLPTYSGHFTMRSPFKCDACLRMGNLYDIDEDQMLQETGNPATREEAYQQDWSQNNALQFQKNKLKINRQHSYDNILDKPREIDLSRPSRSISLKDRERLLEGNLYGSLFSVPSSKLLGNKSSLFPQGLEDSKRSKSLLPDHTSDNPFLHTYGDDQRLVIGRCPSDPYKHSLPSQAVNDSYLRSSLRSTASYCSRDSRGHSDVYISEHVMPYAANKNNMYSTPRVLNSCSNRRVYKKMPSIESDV
From the text: as §2

ε2 subunit = assay: Electrophysiological test in Xenopus oocytes expressing only the ε2 subunit; assay type: cell-based, mouse; conditions: ε2 mRNA alone
Experimental: as §6
(§8) The electrophysiological test was carried out by a conventional micropipet voltage clamp method. Oocytes generally have a membrane potential of about -30 to -40 mV. […] In the present experiment system, flow of these ions were detected, and opening and closing of the ion channel were observed. […]

ε3 subunit = assay: Electrophysiological test in Xenopus oocytes expressing only the ε3 subunit; assay type: cell-based, mouse; conditions: ε3 mRNA alone
Experimental: as §6, §8

ε1 subunit = assay: Electrophysiological test in Xenopus oocytes expressing only the ε1 subunit; assay type: cell-based, mouse; conditions: 10 μM L-glutamate and 100 μM NMDA, even in the presence of 10 μM glycine
Experimental: One or both of ε1 subunit-specific mRNAs and .zeta.1.NMDA type glutamate receptor subunit-specific mRNAs (mRNAs derived from mice, coding an amino acid sequence different in the 213rd (Glu→Asp) and the 460th (Ile→Val) from the N terminal end from the amino acid sequence which is coded by cDNA.-NMDA R1 of a rat-NMDA type glutamate receptor cloned by Nakanishi et al. ("Nature", 354, pp. 31 to 37 (1991))) were injected into Xenopus oocytes.
The oocytes used were obtained from mature female Xenopus and separated into one oocyte in a Barth medium by using sharp tweezers and scissors. The concentration of the mRNAs was 0.1 μg/μl and 10 μl thereof was injected into about 100 oocytes in an amount of 50 to 100 nl per one oocyte. The mRNAs were injected under a microscope by using a capillary and a micromanipulator. After the injection, the oocytes were incubated at 19° C. for one day in a Barth medium containing 0.1 mg/ml of gentamicin ("The Control of Gene Expression in Animal Development, Clarendon, Oxford (1974)). […]
as §7

[10] = biological target: .zeta.1 NMDA type receptor subunit (Mus musculus, UniProt P35438); assay: Electrophysiological test in Xenopus oocytes expressing only the .zeta.1 subunit; conditions: 100 μM NMDA and 10 μM glycine, n=7
Experimental: Then, by using the pBKSA ε1 cut by NotI as a template and using T3 RNA polymerase produced by BRL Co., ε1-specific mRNAs were synthesized in vitro. Transcription was carried out in a solution containing ATP, TTP and CTP at a concentration of 0.5 mM, respectively and 0.1 mM GTP in the presence of 0.5 mM dinucleotide 7mGpppG having a cap structure (in which 2 Gs were linked at 5' and 7-site of one guanine was methylated, produced by P-L Biochemicals Co.). One or both of ε1 subunit-specific mRNAs and .zeta.1.NMDA type glutamate receptor subunit-specific mRNAs (mRNAs derived from mice, coding an amino acid sequence different in the 213rd (Glu→Asp) and the 460th (Ile→Val) from the N terminal end from the amino acid sequence which is coded by cDNA.-NMDA R1 of a rat-NMDA type glutamate receptor cloned by Nakanishi et al. ("Nature", 354, pp. 31 to 37 (1991))) were injected into Xenopus oocytes.
as §6
The electrophysiological test was carried out by a conventional micropipet voltage clamp method. […] First, while a frog standard Ringer's solution (115 mM NaCl, 2.5 mM KCl, 1.8 mM CaCl2 and 10 mM HEPES-NaOH (pH: 7.2)) was flown in a chamber, 2 glass microelectrodes charged with 3M KCl were stuck in the oocytes, and the membrane potential was fixed to -70 mV. In these oocytes, an agonist (NMDA) is linked to a glutamate receptor expressed on a cell membrane and an ion channel is opened, the oocytes have an action of returning membrane potential to an original value, whereby inflow and outflow of ions are caused. In the present experiment system, flow of these ions were detected, and opening and closing of the ion channel were observed.
The ε1 subunit-specific mRNAs synthesized from the cloned cDNAs in vitro were injected into the Xenopus oocytes. […]

[11] = (+)-MK-801, continuous application
[12] = Ba^2+ Ringer's solution, dose-reaction curve

For `O=C(O)c1cc(O)c2ccc(Cl)cc2n1` [7 CK, 7-chlorokynurenate], the “effect on response to 10 μM L-glutamate and 10 μM glycine” value [1] was “suppressed”, the “effect on response to 10 μM L-glutamate or 10 μM glycine alone” value [1] was “disappeared” and the “effect on response to 10 μM L-glutamate or 10 μM glycine alone” value ([2]; 100 μM APV, 30 μM 7 CK) was “disappeared”. For the same compound, the “effect on response to 10 μM L-glutamate and 10 μM glycine” value ([2]; competitive antagonists, 100 μM Mg^2+, 100 μM Zn^2+, 1 μM (+)-MK-801) was “suppressed”, the “decrease of channel activity” value ([3]; 100 μM APV or 3 μM 7 CK, response to 4.7 μM L-glutamate + 0.9 μM glycine, Ba^2+ Ringer's solution, -70 mV) was 34% and the “effect on response to 10 μM L-glutamate and 10 μM glycine” value ([3]; 500 μM APV or 100 μM 7 CK) was “suppressed”. For the same compound, the degree of inhibition ([3]; compared with other ε/.xi. channels under the same conditions) was “smaller than those of the other ε/.xi. channels”, the “order of strength in sensitivity to competitive antagonist” value [4] was “ε3/.xi.1>ε2/.xi.1>ε1/.xi.1” and the “order of sensitivity to competitive antagonist” value ([5]; 10-fold concentration of EC50 value) was “ε3/.xi.1>ε2/.xi.1>ε1/.xi.1=ε4/.xi.1”.

For `C[C@]12N[C@H](Cc3ccccc31)c1ccccc12` [(+)-MK-801], the “effect on response to 10 μM L-glutamate and 10 μM glycine” value [1] was “suppressed”, the “inhibition of current response” value [1] was “strongly inhibited” and the “suppression after repetitive application” value [1] was “suppressed almost completely”. The “effect on response to 10 μM L-glutamate and 10 μM glycine” value [2] was “suppressed”, the “inhibition of current response” value ([6]; 1 mM Mg^2+, 100 μM Zn^2+, 1 μM (+)-MK-801, frog standard Ringer's, -70 mV, 10 μM L-glutamate + 10 μM glycine) was “suppressed effectively” and the “suppression after repetitive application” value [6, 11] was “strongly inhibited”. The “suppression after repetitive application” value [7, 11] was “strongly inhibited”, the “sensitivity to inhibition / current response” value ([7]; Mg^2+, Zn^2+, repetitive (+)-MK-801, frog standard Ringer's, -70 mV, 10 μM L-glutamate + 10 μM glycine) was “showed a great current response after repetitive application of (+)-MK-801” and the “suppression after repetitive application” value ([8]; (+)-MK-801 applied three times repeatedly) was “retained high activities”. The “resistance / sensitivity to inhibition” value ([8]; Mg^2+, Zn^2+, (+)-MK-801, frog standard Ringer's, -70 mV, 10 μM L-glutamate + 10 μM glycine) was “strong resistance”.

In the case of `Cc1onc(O)c1CC(N)C(=O)O` (centres unmarked) [AMPA], the “response to kainate / AMPA” value [1] is reported as “less than the measurement limit” and the “response to kainate / AMPA” value [2] is reported as “less than the measurement limit”.

For `N[C@@H](CC(=O)O)C(=O)O` [L-aspartic acid], the “response to agonist alone” value [1] was “showed a response”.

With `N[C@@H](CCC(=O)O)C(=O)O` [L-glutamate] the EC50 [9] was 1700 nM, the “response of oocytes injected singly” value (ε2 subunit) was less than 1 nA and the “response of oocytes injected singly” value (ε3 subunit) was less than 1 nA.

In the case of `CN[C@H](CC(=O)O)C(=O)O` [NMDA, N-methyl-D-aspartic acid], the current amplitude ([9]; 100 μM NMDA and 10 μM glycine, Ba^2+ Ringer's solution, n=7) is reported as 57±3 nA, the inward current ([9]; 100 μM NMDA and 10 μM glycine, frog standard Ringer's solution, -70 mV, n=7) is reported as 175±30 nA and the inward current [1] is reported as 546±172 nA. The inward current [2] was 89±22 nA, the inward current ([3]; 100 μM NMDA and 10 μM glycine, frog standard Ringer's solution, -70 mV, n=8) was 68±13 nA and the “reaction of injected oocytes” value (ε1 subunit) was “did not show any reaction”. For the same compound, the “response of oocytes injected singly” value (ε2 subunit) was less than 1 nA, the “response of oocytes injected singly” value (ε3 subunit) was less than 1 nA and the current amplitude ([10]; Ba^2+ Ringer's solution) was 1±0.2 nA. It also gave a current amplitude ([10]; Example 1, frog standard Ringer's solution, -70 mV) of 6±1 nA, a current amplitude ([10]; Example 2) of 9±2 nA and a current amplitude ([10]; Example 3) of 13±2 nA.

In the case of `NCC(=O)O` [glycine], the EC50 ([9]; Ba^2+ Ringer's solution, dose-reaction curve, read-out: EC50) is reported as 2100 nM, the “response to agonist alone” value [1] is reported as “showed a response” and the EC50 [1, 12] is reported as 300 nM. For the same compound, the “response to agonist alone” value [2] was “showed a response only to 10 μM glycine”, the EC50 [2, 12] was 200 nM and the EC50 [3] was 90 nM. The Hill coefficient ([3]; Ba^2+ Ringer's solution, -70 mV) was 1.2 and the “order of strength in affinity to agonist” value ([5]; Ba^2+ Ringer's solution) was “ε4/.xi.1>ε3/.xi.1>ε2/.xi.1”.

For `C=C(C)[C@H]1CN[C@H](C(=O)O)[C@H]1CC(=O)O` [kainate], the “response to kainate / AMPA” value [1] was “less than the measurement limit” and the “response to kainate / AMPA” value [2] was “less than the measurement limit”.
